The assay addresses T1, BRM (Homo sapiens, UniProt P51531).
T1 construct: In-Cell Western Screen of BRM Degradation in SW1573 Cells; endogenous in cells; host or cells: SW1573
Put plainly: In-cell Western screen of BRM degradation in SW1573 cells (Dmax and DC50). The class given is cell-based. Particulars: for Dmax: read-out: **Dmax (%) (% degraded). How it is done:
In-Cell Western Screen of BRM Degradation in SW1573 Cells
To assess BRM degradation (Dmax and DC50), cells were seeded at 8000/well in 96-well black/clear-bottom plates in 180 μL DMEM growth media (containing 1% pen-strep, 1% HEPES and 10% FBS) per well. Plates were incubated overnight to allow adhesion. The next morning cells were treated by adding 20 μL of 10× compound (1% DMSO) to appropriate wells and returned to incubator for overnight (18-20 hours). The final DMSO concentration was 0.1%.
For processing, the plates were removed from incubator, the media was removed, and immediately 200 μL of cold (4° C.) DPBS was added to all wells. DPBS was then removed, and 50 μL of 4% paraformaldehyde (PFA) in DPBS (4° C.) was added to all wells, and the plates were incubated at room temperature for 20 minutes. PFA was then removed, and 200 μL of TBS-T containing 0.5% Triton X-100 was added to all wells, and the plates were incubated at room temperature for 30 minutes. TBS-T containing 0.5% Triton X-100 was then removed, and 50 μL of Li-Cor blocking solution was added, and the plates were incubated at room temperature for a minimum of one hour.
The next day plates were washed three times with TBS-T, 200 μL per well. Fifty (50) μL of secondary antibody cocktail in LI-COR blocking solution (anti-rabbit_800 nm and anti-mouse_680 nm) was added to all wells (diluted 1:5000). The plates were incubated at room temperature for at least one hour while protected from light. The plates were washed twice with TBS-T, 200 μL per well.
To read each plate TBS-T was removed, and each plate was inverted tapped on a paper towel. The plates were read on the LI-COR Odyssey with default intensity settings of 5.0 for both channels. LI-COR images were analyzed with the in-cell Western feature of Image Studio Lite.

[1] abbreviates: degradation of BRM, read-out: BRM DC50.
The mark [2] stands for this setting: BRM degradation, SW1573 cells, Table 2D, read-out: *DC50.
[3] abbreviates: BRM degradation, SW1573 cells, Table 2D.

The structures appear in SMILES notation. Like-named read-outs stand apart in the source and are kept apart here.

T1 sequence (P51531 whole entry): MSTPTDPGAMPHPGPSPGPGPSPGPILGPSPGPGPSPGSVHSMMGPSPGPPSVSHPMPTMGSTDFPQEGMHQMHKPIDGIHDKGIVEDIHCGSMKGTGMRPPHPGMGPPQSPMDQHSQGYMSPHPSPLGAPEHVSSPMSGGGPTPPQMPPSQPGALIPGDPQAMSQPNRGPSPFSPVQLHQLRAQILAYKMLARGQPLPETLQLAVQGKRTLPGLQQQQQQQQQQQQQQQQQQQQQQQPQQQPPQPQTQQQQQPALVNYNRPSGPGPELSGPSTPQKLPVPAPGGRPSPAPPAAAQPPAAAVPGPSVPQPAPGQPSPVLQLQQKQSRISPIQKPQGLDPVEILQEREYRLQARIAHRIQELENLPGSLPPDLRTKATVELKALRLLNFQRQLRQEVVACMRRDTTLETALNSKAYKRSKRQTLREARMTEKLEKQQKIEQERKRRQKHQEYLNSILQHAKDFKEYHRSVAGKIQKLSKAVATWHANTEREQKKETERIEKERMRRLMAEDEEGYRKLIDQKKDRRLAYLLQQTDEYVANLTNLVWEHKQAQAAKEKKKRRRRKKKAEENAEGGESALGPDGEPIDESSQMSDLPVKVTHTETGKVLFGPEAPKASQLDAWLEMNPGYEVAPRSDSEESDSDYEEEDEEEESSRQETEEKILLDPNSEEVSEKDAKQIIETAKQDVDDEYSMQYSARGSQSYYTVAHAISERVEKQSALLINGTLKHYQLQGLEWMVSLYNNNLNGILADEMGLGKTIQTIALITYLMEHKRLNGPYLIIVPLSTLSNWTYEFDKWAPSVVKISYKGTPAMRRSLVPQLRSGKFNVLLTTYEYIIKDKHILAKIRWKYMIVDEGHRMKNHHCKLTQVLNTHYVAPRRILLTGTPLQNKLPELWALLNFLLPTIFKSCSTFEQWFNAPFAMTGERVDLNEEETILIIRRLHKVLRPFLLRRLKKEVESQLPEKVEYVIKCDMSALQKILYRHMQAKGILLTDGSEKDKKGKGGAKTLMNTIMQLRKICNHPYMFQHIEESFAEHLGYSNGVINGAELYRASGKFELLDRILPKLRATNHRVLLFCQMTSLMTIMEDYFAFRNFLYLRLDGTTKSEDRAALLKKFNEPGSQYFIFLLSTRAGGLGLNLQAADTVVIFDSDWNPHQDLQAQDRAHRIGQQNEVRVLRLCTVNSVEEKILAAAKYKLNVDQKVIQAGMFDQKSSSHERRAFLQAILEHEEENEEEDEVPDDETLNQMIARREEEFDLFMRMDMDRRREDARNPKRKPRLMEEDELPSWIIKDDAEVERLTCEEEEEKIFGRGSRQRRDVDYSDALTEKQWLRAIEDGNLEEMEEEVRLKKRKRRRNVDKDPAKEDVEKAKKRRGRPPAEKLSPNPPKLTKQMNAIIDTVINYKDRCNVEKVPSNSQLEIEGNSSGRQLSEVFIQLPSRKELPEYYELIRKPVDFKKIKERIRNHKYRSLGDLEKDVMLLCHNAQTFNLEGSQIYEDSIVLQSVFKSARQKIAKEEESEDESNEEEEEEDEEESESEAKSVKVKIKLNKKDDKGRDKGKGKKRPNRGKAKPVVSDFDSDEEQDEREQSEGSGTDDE

`Cc1ncsc1-c1ccc([C@@H](C)NC(=O)[C@H]2C[C@H](O)CN2C(=O)[C@H](c2cc(OCCN3CCC(O)(CN4CC(Oc5cc(N6C7CCC6CN(c6cc(-c8ccccc8O)nnc6N)C7)ccn5)C4)CC3)no2)C(C)C)cc1` (mixture of isomers) [compound 446, rac-(2R,4S)-1-((2S)-2-(3-(2-(4-((3-((4-(3-(3-amino-6-(2-hydroxyphenyl)pyridazin-4-yl)-3,8-diazabicyclo[3.2.1]octan-8-yl)pyridin-2-yl)oxy)azetidin-1-yl)methyl)-4-hydroxypiperidin-1-yl)ethoxy)isoxazol-5-yl)-3-methylbutanoyl)-4-hydroxy-N-((R)-1-(4-(4-methylthiazol-5-yl)phenyl)ethyl)pyrrolidine-2-carboxamide]: the DC50 (in general, the concentration giving 50% degradation) under setting [1] was over 30 nM.

For the compound `Cc1nccn1-c1ccc([C@@H](C)NC(=O)[C@H]2C[C@H](O)CN2C(=O)[C@@H](c2cc(N3CCN(CC4CCN(C[C@H]5C[C@H](Oc6cc(N7C8CCC7CN(c7cc(-c9ccccc9O)nnc7N)C8)ccn6)C5)CC4)CC3)no2)C(C)C)cc1` (racemic) [compound 447, rac-(2R,4S)-1-((2R)-2-(3-(4-((1-(((1r,3r)-3-((4-(3-(3-amino-6-(2-hydroxyphenyl)pyridazin-4-yl)-3,8-diazabicyclo[3.2.1]octan-8-yl)pyridin-2-yl)oxy)cyclobutyl)methyl)piperidin-4-yl)methyl)piperazin-1-yl)isoxazol-5-yl)-3-methylbutanoyl)-4-hydroxy-N-((R)-1-(4-(2-methyl-1H-imidazol-1-yl)phenyl)ethyl)pyrrolidine-2-carboxamide], the DC50 under setting [1] was over 30 nM.

In the case of `Cc1ncsc1-c1ccc([C@H](C)NC(=O)[C@@H]2C[C@@H](O)CN2C(=O)[C@H](c2cc(OCC[C@@H]3CCN(C[C@H]4C[C@H](Oc5cc(N6C7CCC6CN(c6cc(-c8ccccc8O)nnc6N)C7)ccn5)C4)C[C@@H]3C)no2)C(C)C)cc1` (racemic) [compound 543, (2S,4R)-1-((2S)-2-(3-(2-((3R,4S)-1-(((1r,3R)-3-((4-(3-(3-amino-6-(2-hydroxyphenyl)pyridazin-4-yl)-3,8-diazabicyclo[3.2.1]octan-8-yl)pyridin-2-yl)oxy)cyclobutyl)methyl)-3-methylpiperidin-4-yl)ethoxy)isoxazol-5-yl)-3-methylbutanoyl)-4-hydroxy-N-((S)-1-(4-(4-methylthiazol-5-yl)phenyl)ethyl)pyrrolidine-2-carboxamide], the DC50 under setting [2] is over 30 nM.

As for `Cc1ncsc1-c1ccc([C@H](C)NC(=O)[C@@H]2C[C@@H](O)CN2C(=O)[C@@H](c2cc(OCC[C@@H]3CCN(C[C@H]4C[C@H](Oc5cc(N6C7CCC6CN(c6cc(-c8ccccc8O)nnc6N)C7)ccn5)C4)C[C@@H]3C)no2)C(C)C)cc1` (racemic) [compound 544, (2S,4R)-1-((2R)-2-(3-(2-((3R,4S)-1-(((1r,3R)-3-((4-(3-(3-amino-6-(2-hydroxyphenyl)pyridazin-4-yl)-3,8-diazabicyclo[3.2.1]octan-8-yl)pyridin-2-yl)oxy)cyclobutyl)methyl)-3-methylpiperidin-4-yl)ethoxy)isoxazol-5-yl)-3-methylbutanoyl)-4-hydroxy-N-((S)-1-(4-(4-methylthiazol-5-yl)phenyl)ethyl)pyrrolidine-2-carboxamide], under setting [3], the Dmax – broadly, the largest share of the target that was removed – was over 75%. The DC50 under setting [2] is under 2.5 nM.

Consider `Cc1ncsc1-c1ccc([C@H](C)NC(=O)[C@@H]2C[C@@H](O)CN2C(=O)[C@H](c2cc(OCC[C@@H]3CCN(C[C@H]4C[C@H](Oc5cc(N6C7CCC6CN(c6cc(-c8ccccc8O)nnc6N)C7)ccn5)C4)C[C@H]3C)no2)C(C)C)cc1` (racemic) [compound 545, (2S,4R)-1-((2S)-2-(3-(2-((3S,4S)-1-(((1r,3S)-3-((4-(3-(3-amino-6-(2-hydroxyphenyl)pyridazin-4-yl)-3,8-diazabicyclo[3.2.1]octan-8-yl)pyridin-2-yl)oxy)cyclobutyl)methyl)-3-methylpiperidin-4-yl)ethoxy)isoxazol-5-yl)-3-methylbutanoyl)-4-hydroxy-N-((S)-1-(4-(4-methylthiazol-5-yl)phenyl)ethyl)pyrrolidine-2-carboxamide], for which the Dmax under setting [3] was over 75%. The DC50 under setting [2] was in the range of 2.5 to 10 nM.

Source of the values: patent US12539292B2, “BRM targeting compounds and associated methods of use” (Arvinas Operations, Inc., priority 2018, dated 2026).
